Laboratory results from patent US20190374627A1, “TARGET PEPTIDES FOR CANCER THERAPY AND DIAGNOSTICS” (priority 2016, published 2019).
Square brackets hold non-standard residues; d marks the D form. Ends that are not written are not given here. pS = N[C@@H](COP(=O)(O)O)C(=O)O

How the values were obtained:
CD8^+ T cells (PBMCs) = test: Intracellular cytokine staining (ICS) of PBMCs after 7 days of stimulation with MHC-I-pP (healthy donors, HH patients); assay type: cell-based, human; settings: for Reactive CD8^+ T cell population, HH2: HH patient HH2; for Reactive CD8^+ T cell population, HH3: HH patient HH3; for Reactive CD8^+ T cell population, HH6: HH patient HH6; for Reactive CD8^+ T cell population, HH8: HH patient HH8; for Reactive CD8^+ T cell population, HD1: Healthy donor HD1; for Reactive CD8^+ T cell population, HD4: Healthy donor HD4; for Reactive CD8^+ T cell population, HD5: Healthy donor HD5
Summary of the method: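 PBMCs or liver lymphocytes from HLA-A*0201-positive healthy donors and hereditary hemochromatosis patients were stimulated for 7 days with HLA-A*0201-restricted phosphopeptides and no added cytokines. After exclusion of doublets and dead cells with a fixable viability dye, CD3^+CD8^+ cells were analysed by intracellular staining for IFN-γ and TNF-α, plus CD107a where needed.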

[1] = tested on: expanded TIL / IHL cultures; test: ICS for MHC-I-pP reactivity of liver-derived lymphocyte cultures after unspecific rapid expansion protocol (REP); assay type: cell-based, human
[2] = tested on: expanded lymphocyte cultures from deceased donor livers, cirrhotic livers and HCC; test: ICS for MHC-I-pP reactivity of liver-derived lymphocyte cultures after phosphopeptide-specific expansion; assay type: cell-based, human; settings: for ppCTL response, Deceased Donor Liver Do 2 / ppCTL response, Deceased Donor Liver Do 3 / ppCTL response, Deceased Donor Liver Do 4 / ppCTL response, Deceased Donor Liver Do 6 / ppCTL response, End-stage Liver Cirrhosis IHL 11 / ppCTL response, End-stage Liver Cirrhosis IHL 12 / ppCTL response, End-stage Liver Cirrhosis IHL 13 / ppCTL response, End-stage Liver Cirrhosis IHL 15 / ppCTL response, HCC Distal HCC 1 / ppCTL response, HCC Tumor HCC 1 / ppCTL response, HCC Distal HCC 4 / ppCTL response, HCC Distal HCC 9 / ppCTL response, HCC Tumor HCC 9 / ppCTL response, HCC Distal HCC 12: pP-specifically expanded culture; for ppCTL response, HCC Distal HCC 1: HCC 1 Distal; for ppCTL response, HCC Tumor HCC 1: HCC 1 Tumor; for ppCTL response, HCC Distal HCC 4: HCC 4 Distal; for ppCTL response, HCC Distal HCC 9: HCC 9 Distal; for ppCTL response, HCC Tumor HCC 9: HCC 9 Tumor; for ppCTL response, HCC Distal HCC 12: HCC 12 Distal
[3] = tested on: unexpanded lymphocyte cultures (CD8^+ T cells); test: ICS for MHC-I-pP reactivity of lymphocyte cultures without expansion (Table 23, No Expansion)

Substance: KIAsEIAQL: CASKIN2 phosphopeptide, HLA-A*0201 (KIA[pS]EIAQL; listed as Homo sapiens)
- Reactive CD8^+ T cell population, HH2 (CD8^+ T cells (PBMCs)): 0 (<0.25% reactive CD8^-+ T cells)
- Reactive CD8^+ T cell population, HH3 (CD8^+ T cells (PBMCs)): 0 (<0.25% reactive CD8^-+ T cells)
- Reactive CD8^+ T cell population, HH6 (CD8^+ T cells (PBMCs)): 1 (0.25-2.5% reactive CD8^-+ T cells)
- Reactive CD8^+ T cell population, HH8 (CD8^+ T cells (PBMCs)): 0 (<0.25% reactive CD8^-+ T cells)
- Reactive CD8^+ T cell population, HD1 (CD8^+ T cells (PBMCs)): 0 (<0.25% reactive CD8^-+ T cells)
- Reactive CD8^+ T cell population, HD4 (CD8^+ T cells (PBMCs)): 0 (<0.25% reactive CD8^-+ T cells)
- Reactive CD8^+ T cell population, HD5 (CD8^+ T cells (PBMCs)): 0 (<0.25% reactive CD8^-+ T cells)
- Reactive CD8^+ T cells, Non-specific Expansion, Do2 [1]: 1 (0.25-2.5% reactive CD8^-+ T cells)
- Reactive CD8^+ T cells, Non-specific Expansion, Do4 [1]: 0 (<0.25% reactive CD8^-+ T cells)
- Reactive CD8^+ T cells, Non-specific Expansion, HH6 [1]: 1 (0.25-2.5% reactive CD8^-+ T cells)
- Reactive CD8^+ T cells, pP-specific Expansion, Do2 [2]: 0 (<0.25% reactive CD8^-+ T cells)
- Reactive CD8^+ T cells, pP-specific Expansion, Do4 [2]: 0 (<0.25% reactive CD8^-+ T cells)
- Reactive CD8^+ T cells, pP-specific Expansion, HH6 [2]: 0 (<0.25% reactive CD8^-+ T cells)
- ppCTL response, Deceased Donor Liver Do 2 [2]: 0 (<0.25% reactive CD8-+ T cells)
- ppCTL response, Deceased Donor Liver Do 3 [2]: 0 (<0.25% reactive CD8-+ T cells)
- ppCTL response, Deceased Donor Liver Do 4 [2]: 1 (0.25-2.5% reactive CD8-+ T cells)
- ppCTL response, Deceased Donor Liver Do 6 [2]: 1 (0.25-2.5% reactive CD8-+ T cells)
- ppCTL response, End-stage Liver Cirrhosis IHL 11 [2]: 0 (<0.25% reactive CD8-+ T cells)
- ppCTL response, End-stage Liver Cirrhosis IHL 12 [2]: 0 (<0.25% reactive CD8-+ T cells)
- ppCTL response, End-stage Liver Cirrhosis IHL 13 [2]: 0 (<0.25% reactive CD8-+ T cells)
- ppCTL response, End-stage Liver Cirrhosis IHL 15 [2]: 0 (<0.25% reactive CD8-+ T cells)
- ppCTL response, HCC Distal HCC 1 [2]: 0 (<0.25% reactive CD8-+ T cells)
- ppCTL response, HCC Tumor HCC 1 [2]: 0 (<0.25% reactive CD8-+ T cells)
- ppCTL response, HCC Distal HCC 4 [2]: 0 (<0.25% reactive CD8-+ T cells)
- ppCTL response, HCC Distal HCC 9 [2]: 0 (<0.25% reactive CD8-+ T cells)
- ppCTL response, HCC Tumor HCC 9 [2]: 0 (<0.25% reactive CD8-+ T cells)
- ppCTL response, HCC Distal HCC 12 [2]: 0 (<0.25% reactive CD8-+ T cells)
- Reactive CD8^+ T cells, No Expansion, HH6 [3]: 1 (0.25-2.5% reactive CD8^-+ T cells)

Substance: RTHsLLLLL (RTH[pS]LLLLL; listed as Homo sapiens)
- Reactive CD8^+ T cell population, HH2 (CD8^+ T cells (PBMCs)): 0 (<0.25% reactive CD8^-+ T cells)
- Reactive CD8^+ T cell population, HH3 (CD8^+ T cells (PBMCs)): 0 (<0.25% reactive CD8^-+ T cells)
- Reactive CD8^+ T cell population, HH6 (CD8^+ T cells (PBMCs)): 0 (<0.25% reactive CD8^-+ T cells)
- Reactive CD8^+ T cell population, HH8 (CD8^+ T cells (PBMCs)): 0 (<0.25% reactive CD8^-+ T cells)
- Reactive CD8^+ T cell population, HH10 (CD8^+ T cells (PBMCs); HH patient HH10): 0 (<0.25% reactive CD8^-+ T cells)
- Reactive CD8^+ T cell population, HH11 (CD8^+ T cells (PBMCs); HH patient HH11): 0 (<0.25% reactive CD8^-+ T cells)
- Reactive CD8^+ T cell population, HD1 (CD8^+ T cells (PBMCs)): 0 (<0.25% reactive CD8^-+ T cells)
- Reactive CD8^+ T cell population, HD2 (CD8^+ T cells (PBMCs); Healthy donor HD2): 0 (<0.25% reactive CD8^-+ T cells)
- Reactive CD8^+ T cell population, HD3 (CD8^+ T cells (PBMCs); Healthy donor HD3): 0 (<0.25% reactive CD8^-+ T cells)
- Reactive CD8^+ T cell population, HD4 (CD8^+ T cells (PBMCs)): 0 (<0.25% reactive CD8^-+ T cells)
- Reactive CD8^+ T cell population, HD5 (CD8^+ T cells (PBMCs)): 0 (<0.25% reactive CD8^-+ T cells)
- Reactive CD8^+ T cells, Non-specific Expansion, Do2 [1]: 0 (<0.25% reactive CD8^-+ T cells)
- Reactive CD8^+ T cells, Non-specific Expansion, Do4 [1]: 0 (<0.25% reactive CD8^-+ T cells)
- Reactive CD8^+ T cells, Non-specific Expansion, HH6 [1]: 1 (0.25-2.5% reactive CD8^-+ T cells)
- Reactive CD8^+ T cells, pP-specific Expansion, Do2 [2]: 0 (<0.25% reactive CD8^-+ T cells)
- Reactive CD8^+ T cells, pP-specific Expansion, Do4 [2]: 0 (<0.25% reactive CD8^-+ T cells)
- Reactive CD8^+ T cells, pP-specific Expansion, HH6 [2]: 0 (<0.25% reactive CD8^-+ T cells)
- ppCTL response, Deceased Donor Liver Do 2 [2]: 0 (<0.25% reactive CD8-+ T cells)
- ppCTL response, Deceased Donor Liver Do 3 [2]: 0 (<0.25% reactive CD8-+ T cells)
- ppCTL response, Deceased Donor Liver Do 4 [2]: 0 (<0.25% reactive CD8-+ T cells)
- ppCTL response, Deceased Donor Liver Do 6 [2]: 0 (<0.25% reactive CD8-+ T cells)
- ppCTL response, End-stage Liver Cirrhosis IHL 11 [2]: 0 (<0.25% reactive CD8-+ T cells)
- ppCTL response, End-stage Liver Cirrhosis IHL 12 [2]: 0 (<0.25% reactive CD8-+ T cells)
- ppCTL response, End-stage Liver Cirrhosis IHL 13 [2]: 0 (<0.25% reactive CD8-+ T cells)
- ppCTL response, End-stage Liver Cirrhosis IHL 15 [2]: 0 (<0.25% reactive CD8-+ T cells)
- ppCTL response, HCC Distal HCC 1 [2]: 0 (<0.25% reactive CD8-+ T cells)
- ppCTL response, HCC Tumor HCC 1 [2]: 0 (<0.25% reactive CD8-+ T cells)
- ppCTL response, HCC Distal HCC 4 [2]: 0 (<0.25% reactive CD8-+ T cells)
- ppCTL response, HCC Distal HCC 9 [2]: 0 (<0.25% reactive CD8-+ T cells)
- ppCTL response, HCC Tumor HCC 9 [2]: 0 (<0.25% reactive CD8-+ T cells)
- ppCTL response, HCC Distal HCC 12 [2]: 0 (<0.25% reactive CD8-+ T cells)
- Reactive CD8^+ T cells, No Expansion, Do4 ([3]; Do4): 2 (2.5-5.0% reactive CD8^-+ T cells)
- Reactive CD8^+ T cells, No Expansion, HH6 [3]: 1 (0.25-2.5% reactive CD8^-+ T cells)

Substance: RLAsYLDRV: KRT18 phosphopeptide, HLA-A*0201 (RLA[pS]YLDRV; listed as Homo sapiens)
- Reactive CD8^+ T cell population, HH2 (CD8^+ T cells (PBMCs)): 3 (5-7.5% reactive CD8^-+ T cells)
- Reactive CD8^+ T cell population, HH3 (CD8^+ T cells (PBMCs)): 0 (<0.25% reactive CD8^-+ T cells)
- Reactive CD8^+ T cell population, HH6 (CD8^+ T cells (PBMCs)): 0 (<0.25% reactive CD8^-+ T cells)
- Reactive CD8^+ T cell population, HH8 (CD8^+ T cells (PBMCs)): 0 (<0.25% reactive CD8^-+ T cells)
- Reactive CD8^+ T cell population, HD1 (CD8^+ T cells (PBMCs)): 0 (<0.25% reactive CD8^-+ T cells)
- Reactive CD8^+ T cell population, HD4 (CD8^+ T cells (PBMCs)): 0 (<0.25% reactive CD8^-+ T cells)
- Reactive CD8^+ T cell population, HD5 (CD8^+ T cells (PBMCs)): 0 (<0.25% reactive CD8^-+ T cells)
- Reactive CD8^+ T cells, Non-specific Expansion, Do2 [1]: 0 (<0.25% reactive CD8^-+ T cells)
- Reactive CD8^+ T cells, Non-specific Expansion, Do4 [1]: 0 (<0.25% reactive CD8^-+ T cells)
- Reactive CD8^+ T cells, Non-specific Expansion, HH6 [1]: 1 (0.25-2.5% reactive CD8^-+ T cells)
- Reactive CD8^+ T cells, pP-specific Expansion, Do2 [2]: 0 (<0.25% reactive CD8^-+ T cells)
- Reactive CD8^+ T cells, pP-specific Expansion, Do4 [2]: 0 (<0.25% reactive CD8^-+ T cells)
- Reactive CD8^+ T cells, pP-specific Expansion, HH6 [2]: 0 (<0.25% reactive CD8^-+ T cells)
- ppCTL response, Deceased Donor Liver Do 2 [2]: 0 (<0.25% reactive CD8-+ T cells)
- ppCTL response, Deceased Donor Liver Do 3 [2]: 0 (<0.25% reactive CD8-+ T cells)
- ppCTL response, Deceased Donor Liver Do 4 [2]: 0 (<0.25% reactive CD8-+ T cells)
- ppCTL response, Deceased Donor Liver Do 6 [2]: 0 (<0.25% reactive CD8-+ T cells)
- ppCTL response, End-stage Liver Cirrhosis IHL 11 [2]: 0 (<0.25% reactive CD8-+ T cells)
- ppCTL response, End-stage Liver Cirrhosis IHL 12 [2]: 0 (<0.25% reactive CD8-+ T cells)
- ppCTL response, End-stage Liver Cirrhosis IHL 13 [2]: 0 (<0.25% reactive CD8-+ T cells)
- ppCTL response, End-stage Liver Cirrhosis IHL 15 [2]: 0 (<0.25% reactive CD8-+ T cells)
- ppCTL response, HCC Distal HCC 1 [2]: 0 (<0.25% reactive CD8-+ T cells)
- ppCTL response, HCC Tumor HCC 1 [2]: 0 (<0.25% reactive CD8-+ T cells)
- ppCTL response, HCC Distal HCC 4 [2]: 0 (<0.25% reactive CD8-+ T cells)
- ppCTL response, HCC Distal HCC 9 [2]: 0 (<0.25% reactive CD8-+ T cells)
- ppCTL response, HCC Tumor HCC 9 [2]: 0 (<0.25% reactive CD8-+ T cells)
- ppCTL response, HCC Distal HCC 12 [2]: 0 (<0.25% reactive CD8-+ T cells)
- Reactive CD8^+ T cells, No Expansion, HH6 [3]: 0 (<0.25% reactive CD8^-+ T cells)
